Data published in US20260286316A1, “METHOD OF PRODUCTION OF MODIFIED PHAGE AND METHOD OF TREATMENT USING SAME” (priority 2022, published 2026).
≈ marks a conversion by molar mass, not a printed value.

Experiments:
S. aureus CI3 [1] = assay: Rat rhinosinusitis model, efficacy arm (sinus mucosa CFU, biofilm biomass, histopathology); format: in vivo, Sprague Dawley rats; details: Sa87, ½ MIC clindamycin or ½ MIC azithromycin only
Text: Rat nasal tissues were fixed in 10% neutral buffered formalin. Tissue samples were then decalcified using 9.5% nitric acid in 1% ethylenediaminetetracetic acid (EDTA), processed to paraffin wax, and 6 μm sections cut and stained with H&E. The samples were examined by a veterinary pathologist blinded to the treatments given.
An established murine rhinosinusitis model was used with modifications (see YU C-j et al., Chinese Journal of Otorhinolaryngology-Skull Base Surgery 6, 2011; Zhang F et al., Am J Rhinol Allergy 27 (5): 361-366, 2013; and Jin M et al., Ear Arch Oto-Rhino-L 268 (6): 857-861, 2011). […] The sponges were placed at approximately 15 mm from the anterior nostril, located in the ostiomeatal complex. The rats were monitored for a nine-day period to allow for mucosal biofilms to form, and, on the tenth day, the sponges were removed. A two-day recovery was given to the rat before treatments begun. […] Treatments were administered intranasally twice a day for 14 days. Rats were monitored for weight and respiratory alterations (respiration rate; nasal discharge, hyperaemia or pruritus; and sneezing) during treatment, and, 14 days post-treatment initiation, the rats were humanely sacrificed. Their sinus mucosa was harvested for CFU counting, biofilm quantification, histopathology, and phage enumeration. […]
The quantification of biofilm biomass on sinus mucosa was determined using an established protocol (Singhal D et al., editors. Quantitative analysis of in vivo mucosal bacterial biofilms. International Forum of Allergy & Rhinology; 2012: Wiley Online Library (27). Briefly, the frontal sinus mucosa was harvested and placed into Dulbecco's Modified Eagle's Medium (Life Technologies, Carlsbad, CA, United States of America) on ice. One piece of mucosa from each frontal sinus was stained with a LIVE/DEAD® BacLight Bacterial Viability Kit (Life Technologies Australia). The stained mucosa was then examined at 20× magnification using a confocal laser scanning microscope (Zeiss LSM700, Carl Zeiss AG, Oberkochen, Germany). […]

S. aureus CI3 [2] = assay: Antibiotic sensitivity of the isolate selected for in vivo experiments; format: cell-based, Staphylococcus aureus
Method: (§1) The minimum inhibitory concentration (MIC) of amoxicillin, vancomycin, erythromycin, clindamycin and azithromycin against the S. aureus strains was assessed using the broth microdilution technique as previously described (Wiegand I et al., Nature protocols 3 (2): 163-175, 2008) and breakpoints defined according to CSLI guidelines. Clinical strains resistant to at least one antibiotic in three or more antibiotic categories were defined as multidrug resistant (MDR).
A fresh culture of CI3 on 1.5% TSA plates was prepared two days before inoculation. A single colony was resuspended in 0.9% saline (ca. 2 ml) to turbidity reading 0.5 McFarland Units and then a 1 in 100 dilution in TSB was cultured overnight one day before the in vivo experiment. CI3 pellets were harvested and resuspended in fresh TSB to reach 2.5×10^9 Colony Forming Units (CFU)/ml.

S. aureus CI3 [3] = assay: Phage combined with ½ MIC antibiotics on planktonic S. aureus (OD600), CI3; format: cell-based, Staphylococcus aureus; details: ½ MIC antibiotic, phage MOI=0.2, 24 hours
Method: Initial screening was performed in 100 μl in 96 well plates, with follow up experiments in 10 mL culture volume. S. aureus strains were grown on 1.5% Tryptone Soya Agar (TSA) at 37° C. overnight. Single colonies were transferred to Tryptone Soya Broth (TSB) to generate a culture with a starting concentration of 5×10^5 CFU/ml. […] Antibiotics were added to the cultures at ½ MIC (according to the pretest MIC of antibiotics) if required. Optical density (OD) readings at 600 nm were recorded at 24 hours to assess the growth of bacteria co-inoculated with phage unless otherwise specified. Uninoculated, fresh media was included as a sterility control.

S. aureus ATCC51650 = assay: Clindamycin MIC, broth microdilution; format: cell-based; details: Staphylococcus aureus
Method: as §1

S. aureus CI11 = assay: Clindamycin MIC, broth microdilution; format: cell-based; details: Staphylococcus aureus
Method: as §1

CCC[C@@H]1C[C@@H](C(=O)N[C@@H]([C@H]2O[C@H](SC)[C@H](O)[C@@H](O)[C@H]2O)[C@H](C)Cl)N(C)C1 [clindamycin]
histopathology of the maxilloturbinates, single agent (S. aureus CI3 [1]): evidence of cilial denudation and surface epithelial erosion
antibiotic sensitivity of the isolate (S. aureus CI3 [2]): sensitive
synergistic effects with phage J-Sa36, Sa83 and Sa87 on bacterial viability (OD600) (S. aureus CI3 [3]): synergistic effects
MIC (S. aureus ATCC51650): 0.2 µg/mL (≈ 0.471 µM)
MIC (S. aureus CI11): 0.2 µg/mL (≈ 0.471 µM)
